Structures can show the parent of a compound that is named as a salt.
Columns and labels:
Mäuse [1] = test: Swimming test at 40°C; type: in vivo; conditions: for Schwimmzeit: 40°C
Source text: (§1) Der Einfluss der beanspruchten Verbindung auf die physische Toleranz der Tiere wurde nach dem Schwimmtest der Mäuse und Ratten untersucht. Die Versuche wurden in einer Wanne von […] Fläche durchgeführt. Die Tiergruppe (8 bis I0 Mäuse oder Ratten) wurde ins Wasser gebracht und es wurde die Zeit der Schwimmfähigkeit bestimmt. Die neue Verbindung und γ -Amino- β - -phenylbuttersäurehydrochlorid wurden enteral und intraperitoneal I Stunde oder 3 Stunden vor dem Schwimmbeginn eingeführt. Die Untersuchung wurde sowohl nach der einmaligen als auch nach der chronischen (innerhalb von 20 Tagen einmal täglich) Einführung der genannten Verbindungen durchgeführt. Die Versuche wurden bei 3 Temperaturen angestellt: 2°C (Tabelle I7), 25°C (Tabelle I8) und 40°C (Tabelle I9).

Ratten [2] = test: Natriumäthaminal intoxication, sleep duration, rats; type: in vivo
Method: Ausserdem wurde die Wirkung der beanspruchten Verbindung auf die durch Natriumäthaminal erzeugte Intoxikation untersucht. Die Versuche wurden an männlichen Mäusen und Ratten in Gruppen zu 8 bis I0 Tieren angestellt. Natriumäthaminal wurde intraperitoneal in einner Dosis von I00 mg/kg I5 min nach der enteralen Verabreichung der beanspruchten Verbindung oder der Kontrollarzneimittel eingeführt. Es wurde die einmalige und chronische Einwirkung (während I2 bis I4 Tage einmal täglich) von der neuen Verbindung, γ -Amino- β - -phenylbuttersäurehydrochlorid und Pyrazetam untersucht. Es wurde die Dauer der Seitenlage - des Schlafs der Tiere bestimmt. Die Ergebnisse dieser Untersuchung sind in Tabelle 23 (für Mäuse) und 24 (für Ratten) angeführt.

Mäuse [3] = test: Conflict situation (punished water intake); type: in vivo; conditions: 45 to 120 min before test
Source text: Es wurde auch die Wirkung der erfindungsgemässen Verbindung unter Bedingungen einer Konfliktsituation an männlichen Mäusen (Gruppe aus I0 Mäusen) untersucht. Vorläufig wurde den Mäusen das Wasser für 48 Stunden entzogen, danach wurden ihnen 45 bis I20 Minuten vor dem Versuch die Verbindungen intraperitoneal eingeführt und die Tiere wurden in der Kammer untergebracht, wo sich eine Wassertränke befand. Im Augenblick der Wassereinnahme bekam es einen elektrischen Schlag, der am Zähler registriert wurde. In der Prüfkammer befand sich das Tier innerhalb von 3 Minuten. Für diese Zeit wurden die Zahl der Wassereinnahmen sowie die Lazenzperiode - die Zeit zwischen dem Unterbringen des Tiers in der Kammer und der ersten Wassereinnahme - registriert. Die durchschnittlichen Angaben sind in der Tabelle 5 angeführt.

Mäuse [4] = test: Hypoxia in barochamber (11000 m), survival; type: in vivo
Method: Nach einer der Methoden wurden die Mäuse in der Barokammer untergebracht, die für die Höhe von II000 m über dem Meeresspiegel gehoben wurde. Die Hebung wurde mit einer Geschwindigkeit von 50 m/s verwirklicht. Der atmosphärische Tiefdruck wurde mit Hilfe der elektrischen Vakuumpumpe geschaffen.
Die beanspruchte Verbindung, Natriumoxybutyrat und Pyrazetam wurden 60 min vor dem Versuch enteral eingeführt. Der Schutzeffekt wurde nach der Überlebensdauer eingeschätzt. Die Angaben sind in Tabelle I0 angeführt.

Ratten [5] = test: Swimming test at 25°C; type: in vivo; conditions: 50,0 mg/kg
Source text: as §1

[6] = Storage stability (description of the substance); type: physicochemical
Ratten [7] = test: Habituation study over 6 months: motor activity of rats in actometer; type: in vivo
Source text: Das Ausbleiben der Gewöhnung an die beanspruchte Verbindung wurde auch in den Rattenversuchen festgestellt, die im Laufe von 6 Monaten zur Bestimmung der motorischen Aktivität der Ratten durchgeführt wurden.

[8] = Solubility (description of the substance); type: physicochemical
Mäuse [9] = test: Strophantin toxicity (arrhythmia), time to death; type: in vivo
Source text: Unter Berücksichtigung der Tatsache, dass einige Verbindungen, die ähnlich mit der erfindungsgemässen Verbindung eine sedative Wirkung besitzen, als symptomatische Mittel zur Behandlung von verschiedenen Arrhythmienarten angewendet werden können, wurde der Einfluss der erfindungsgemässen Verbindung auf die toxischen Strophantin-Effekte geprüft, die mit der Herzrhythmusstörung verbunden sind. Dazu wurde bei weissen Mäusen (die Gruppe aus I0 Tieren) die Zeit des Todeseintritts bei der intravenösen Einführung von Strophantin (0,0I%ige wässrige Lösung) im einzelnen und in Kombination mit der neuen Verbindung und mit γ -Amino--β -phenylbuttersäurehydrochlorid bestimmt. Die Ergebnisse dieser Versuche sind in der Tabelle 25 angeführt.

Mäuse [10] = test: Ethanol intoxication, survival; type: in vivo
Source text: Es wurde auch der Einfluss der erfindungsgemässen Verbindung auf die durch Athanol erzeugte Intoxikation untersucht. In den Versuchen an Mäusen (in jedem Versuch wurde eine Gruppe von I0 Tieren untersucht) wurde die Überlebensdauer der Tiere bestimmt. […] Athanol wurde I Stunde nach der Einführung der neuen Verbindung verabreicht. Die Ergebnisse dieser Untersuchung sind in der Tabelle 2 dargestellt.

Mäuse [11] = test: Acute toxicity, mice; type: in vivo
Method: Die akute Toxizität der beanspruchten Verbindung wurde an Mäusen und Ratten (die Gruppe aus 9 bis I2 Tieren) bei der intravenösen, intraperitonealen Einführung der beanspruchten Verbindung sowie bei deren Einführung in den Magen bestimmt.
Es wurden der letale Ausgang, der Allgemeinzustand, die Vergiftungssymptome registriert. LD₅₀ wurde nach der Methode von Lichtfield und Wilcoxon bestimmt. LD₅₀ der neuen Verbindung beträgt für Mäuse bei der intravenösen Einführung 580 mg/kg, bei der intraperitonealen Einführung I450 mg/kg, bei der Einführung in den Magen 4600 mg/kg; für Ratten bei der intraperitonealen Einführung beträgt LD₅₀ 883 mg/kg, bei der Einführung in den Magen - über I500 mg/kg.

[12] = 50 mg/kg chronic, 14 days + Natriumäthaminal 100 mg/kg i.p.
[13] = 50 mg/kg single + Natriumäthaminal 100 mg/kg i.p.

With `NCC(CC(=O)O)c1ccccc1` (stereo not drawn) [γ-Amino-β-phenylbutter-säurehydrochlorid, γ -Amino- β -phenylbuttersäurehydrochlorid, reference compound] the Schwimmzeit (Mäuse [1]; 35 mg/kg chronic, 20 days) was 58±7,2 min, the Schwimmzeit (Mäuse [1]; 35 mg/kg single) was 37,8±8 min and the Schlafdauer (Ratten [2]; [12]) was 290,0±17 min. For the same compound, the Schlafdauer (Ratten [2]; [13]) was 288,6±27 min and the Latenzperiode (Mäuse [3]; 16 mg/kg i.p.) was 36,4±6,8 sec.
With “γ -Amino- β -phenylbuttersäureorotat [Erfindungsgemässe Verbindung]” the Überlebensdauer (Mäuse [4]; 50,0 mg/kg enteral 60 min before) was 6,2±1,4 min, the Überlebensdauer (Mäuse [4]; 100,0 mg/kg enteral 60 min before) was 7,5±2,1 min and the Überlebensdauer (Mäuse [4]; 200,0 mg/kg enteral 60 min before) was 15,2±1,8 min. For the same compound, the Schwimmzeit (Mäuse [1]; 50 mg/kg single) was 57,6±5,6 min, the “Schwimmdauer grösser um das ...fache bei einer Temperatur von 40°C” value (Mäuse [1]; after 20 days chronic administration, Tabelle I9, compared with γ-Amino-β-phenylbuttersäurehydrochlorid as worded) was 2,5 fache and the “Schwimmzeit, Ratten” value (Ratten [5]) was 8,2±0,5. For the same compound, the “Beständigkeit bei der Aufbewahrung” value [6] was “beständig”, the “Zahl der Impulse im Aktometer innerhalb von 30 min” value (Ratten [7]; day 1, 25 mg/kg) was 183±24 and the “Zahl der Impulse im Aktometer innerhalb von 30 min” value (Ratten [7]; day 1, 75 mg/kg) was 111±13. For the same compound, the “Zahl der Impulse im Aktometer innerhalb von 30 min” value (Ratten [7]; day 1, 200 mg/kg) was 15±16, the “Zahl der Impulse im Aktometer innerhalb von 30 min” value (Ratten [7]; day 35, 25 mg/kg) was 171±18 and the “Zahl der Impulse im Aktometer innerhalb von 30 min” value (Ratten [7]; day 35, 75 mg/kg) was 129±14. The “Zahl der Impulse im Aktometer innerhalb von 30 min” value (Ratten [7]; day 35, 200 mg/kg) was 64±18, the “Zahl der Impulse im Aktometer innerhalb von 30 min” value (Ratten [7]; day 70, 25 mg/kg) was 126±27 and the “Zahl der Impulse im Aktometer innerhalb von 30 min” value (Ratten [7]; day 70, 75 mg/kg) was 81±13. The “Zahl der Impulse im Aktometer innerhalb von 30 min” value (Ratten [7]; day 70, 200 mg/kg) was 43±15, the “Zahl der Impulse im Aktometer innerhalb von 30 min” value (Ratten [7]; day 85, 25 mg/kg) was 147±19 and the “Zahl der Impulse im Aktometer innerhalb von 30 min” value (Ratten [7]; day 85, 75 mg/kg) was 109±17. For the same compound, the “Zahl der Impulse im Aktometer innerhalb von 30 min” value (Ratten [7]; day 85, 200 mg/kg) was 67±21, the “Zahl der Impulse im Aktometer innerhalb von 30 min” value (Ratten [7]; day 107, 25 mg/kg) was 138±20 and the “Zahl der Impulse im Aktometer innerhalb von 30 min” value (Ratten [7]; day 107, 75 mg/kg) was 137±14. For the same compound, the “Zahl der Impulse im Aktometer innerhalb von 30 min” value (Ratten [7]; day 107, 200 mg/kg) was 79±17, the “Zahl der Impulse im Aktometer innerhalb von 30 min” value (Ratten [7]; day 120, 25 mg/kg) was 145±23 and the “Zahl der Impulse im Aktometer innerhalb von 30 min” value (Ratten [7]; day 120, 75 mg/kg) was 118±28. For the same compound, the “Zahl der Impulse im Aktometer innerhalb von 30 min” value (Ratten [7]; day 120, 200 mg/kg) was 71±13, the “Zahl der Impulse im Aktometer innerhalb von 30 min” value (Ratten [7]; day 138, 25 mg/kg) was 168±32 and the “Zahl der Impulse im Aktometer innerhalb von 30 min” value (Ratten [7]; day 138, 75 mg/kg) was 169±31. The “Zahl der Impulse im Aktometer innerhalb von 30 min” value (Ratten [7]; day 138, 200 mg/kg) was 103±13, the “Zahl der Impulse im Aktometer innerhalb von 30 min” value (Ratten [7]; day 154, 25 mg/kg) was 127±17 and the “Zahl der Impulse im Aktometer innerhalb von 30 min” value (Ratten [7]; day 154, 75 mg/kg) was 181±31. The “Zahl der Impulse im Aktometer innerhalb von 30 min” value (Ratten [7]; day 154, 200 mg/kg) was 85±24, the “Zahl der Impulse im Aktometer innerhalb von 30 min” value (Ratten [7]; day 180, 25 mg/kg) was 154±30 and the “Zahl der Impulse im Aktometer innerhalb von 30 min” value (Ratten [7]; day 180, 75 mg/kg) was 148±13. The “Zahl der Impulse im Aktometer innerhalb von 30 min” value (Ratten [7]; day 180, 200 mg/kg) was 117±18, the Schlafdauer (Ratten [2]; 25 mg/kg single + Natriumäthaminal 100 mg/kg i.p.) was 314,8±22 min and the Schlafdauer (Ratten [2]; [12]) was 167,4±23 min. For the same compound, the Schlafdauer (Ratten [2]; [13]) was 306,4±16 min, the “Löslichkeit in wässrigen Alkalilösungen” value ([8]; aqueous alkali solutions) was “löslich” and the Wasserlöslichkeit ([8]; water) was “schwer wasserlöslich”. For the same compound, the “Zeit des Todeseintritts” value (Mäuse [9]; 50 mg/kg + Strophantin 1,7 mg/kg i.v.) was 22,3 (8,9 - 35,6) min, the “Verlängerung der Zeit des Todeseintritts der Tiere” value (Mäuse [9]; 50 mg/kg, Strophantin) was 2,5 fache and the “Überlebensdauer nach der Einführung von Äthanol” value (Mäuse [10]; 50 mg/kg enteral chronic, 14 days + Äthylalkohol 11 ml/kg) was 283,8±16 sec. The “Überlebensdauer nach der Einführung von Äthanol” value (Mäuse [10]; 50 mg/kg single + Äthylalkohol 11 ml/kg) was 213,6±8 sec, the “Verlängerung der Überlebensdauer der Tiere” value (Mäuse [10]; chronic administration, ethanol intoxication) was 30% and the “Anzahl der Wassereinnahmen für 3 Minuten” value (Mäuse [3]; 25 mg/kg i.p.) was 5,6±0,7. The Latenzperiode (Mäuse [3]; 25 mg/kg i.p.) was 52,4±20 sec, the LD₅₀ (Mäuse [11]; into the stomach) was 4600 mg/kg and the LD₅₀ (Mäuse [11]; intravenous) was 580 mg/kg.

Reference: patent EP0414895A1, “OROTATE OF $g(a)-AMINO-$g(b)-PHENYL-BUTYRIC ACID” (NAUCHNO-PROIZVODSTVENNOE OBIEDINENIE "BIOLAR", priority 1989, dated 1990)
